Where no end group is shown, it is not given here.
Experiments:
[1] = test system: B16-F10 mouse melanocytes; assay: Melanin production (intracellular and extracellular) in B16-F10 mouse melanocytes; format: cell-based; settings: B16F10 cells, 72 hours; A. linearis at 500 μg/ml (highest concentration tested)
Method: Cultured B16F10 mouse melanocytes (passage number 6) were trypsinized (0.25% trypsin and 0.1% EDTA at 37° C. for 5-10 min). Cells (2×10^4 cells/well in 1.9 ml of MEM) were inoculated into 24-well plates using a pipette (FALCON 353046, Becton Dickinson Labware, NJ, U.S.A.), and incubated for 24 hours at 37° C. in the CO2 incubator. After 24-hour incubation, 100 μl of each sample solution was added to each well in duplicate, and the 24-well plate was incubated for 72 hours at 37° C. in the CO2 incubator. […] A 0.5% DMSO concentration was used as a negative control. After incubation, the cultured medium was removed, and assayed for extracellular melanin. The cultured medium was centrifuged (900 g, 20 min at 4° C.) to give a supernatant. One millilitre of a mixture of 0.4 M HEPES buffer (pH 6.8) and EtOH (9:1, v/v) was added to 1 ml of the supernatant was separated. The OD at 475 nm of the resulting solution was measured, and the amount of extracellular melanin was determined. The remaining melanocytes were digested by the addition of […] of CMF-D-PBS and trypsinized (0.25% trypsin and 0.1% EDTA at 37° C. for 5 to 10 min), and then incubated for 16 hours at room temperature. Spectrophotometric analysis of the amount of intracellular melanin was then performed at 475 nm.

[2] = test system: Primary human melanocytes and primary human keratinocytes; assay: Melanin transfer in melanocyte/keratinocyte co-culture, immunofluorescence; format: cell-based; settings: NHM/NHK co-culture, 24 hours
Method: Primary human melanocytes and primary human keratinocytes were cultured in normal Dulbecco's Modified Eagle's Medium (DMEM) containing melanocyte and keratinocyte growth factors respectively. Melanocytes (2.5×10^3 cells/well) were seeded on gelatine treated round coverslips in 24 well plates and were incubated at 37° C. for 72 hours. After the 72 hours the melanocyte medium was removed and medium (with a higher Ca concentration and keratinocyte growth factors) containing the keratinocytes (25×10^3 cells/well) was added to each well. The co-culture was incubated overnight to ensure that the keratinocytes attached. […] After 24 hours the treated cells and untreated cells were analysed with immunofluorescence ([…], et al., 2008). The 24-hour co-cultured cells were washed with PBS and fixed with MeOH (added at a temperature of -20° C.) and incubated for 4 minutes at -20° C. The fixed cells were washed with PBS to remove all the MeOH and incubated for 1 hour at room temperature with goat serum (0.5% in PBS) to remove effects of background noise. […] The washed coverslips were transferred to microscope slides containing mounting media and stored covered at 4° C., until analysed using the fluorescent microscope. The statistical significance in the melanin transfer results obtained for the different treatments, was determined with a student's T-test. […]

Row | Compound | additional melanin extracellularly [1] [µg/mL] | additional melanin intracellularly [1] [µg/mL] | additional melanin produced than in the untreated cells (total) [1] [µg/mL] | melanocyte dendricity and melanosomes in the dendrite tips [2] | melanosomes around the keratinocyte nuclei (positive keratinocytes) ([2]; versus untreated cells)
1 | Cn1c(=O)c2[nH]cnc2n(C)c1=O [theophylline] | 19 | 21 | 40 | – | –
2 | alpha melanocyte stimulating hormone (SYSMEHFRWGKPV; ends and bridges not checked; UniProt P01189 138-150, looked up) [α-MSH, positive control for melanin transfer] | – | – | – | increase in the fluorescence in the tip of the dendrites | higher presence of melanosomes around the keratinocyte nuclei

— patent US12582688B2, “Compositions for the treatment of hypopigmentation” (University of Pretoria, priority 2021, dated 2026)
